Data reported in patent US7872045B2, “Combination therapy for glaucoma treatment” (Allergan, Inc., priority 2001, dated 2011).

How the values were obtained:
[1] = biological target: T1, human EP2 receptor (hEP2) (Homo sapiens, UniProt P43116); test: Radioligand binding competition vs [3H]PGE2, human recombinant EP2 receptor; details: [3H]PGE2 competition, plasma membranes of HEK-293 stable transfectants, 60 min 25° C.
T1 construct: expressed in transfected cells; plasma membrane fraction
Experimental: (§1) Human Recombinant EP1, EP2, EP4, and FP Receptors: Stable Transfectants
(§2) HEK-293 cells stably expressing the human or feline FP receptor, or EP1, EP2, EP3, or EP4 receptors were washed with TME buffer, scraped from the bottom of the flasks, and homogenized for 30 sec using a Brinkman PT 10/35 polytron. TME buffer was added to achieve a final 40 ml volume in the centrifuge tubes (the composition of TME is […]; ION HCl is added to achieve a pH of 7.4).
(§3) The cell homogenate was centrifuged at 19000 r.p.m. for 20 min at 4° C. using a Beckman Ti-60 rotor. The resultant pellet was resuspended in TME buffer to give a final 1 mg/ml protein concentration, as determined by Biorad assay. Radioligand binding competition assays vs. [^3H-]17 -phenyl PGF2α (5 nM) were performed in a 100 μl volume for 60 min. Binding reactions were started by adding plasma membrane fraction. The reaction was terminated by the addition of 4 ml ice-cold TRIS-HCl buffer and rapid filtration through glass fiber GF/B filters using a Brandel cell harvester. The filters were washed 3 times with ice-cold buffer and oven dried for one hour. Non-specific binding was determined with 10 uM unlabeled 17 -phenyl PGF2α.
(§4) [^3H-] PGE2 (5 nM; specific activity 180 Ci mmol) was used as the radioligand for EP receptors. Binding studies employing EP1, EP2, EP3, EP4 were performed in duplicate in at least three separate experiments. A 200 μl assay volume was used. Incubations were for 60 min at 25° C. and were terminated by the addition of 4 ml of ice-cold 50 mM TRIS-HCl, followed by rapid filtration through Whatman GF/B filters and three additional 4 ml washes in a cell harvester (Brandel). Non-specific binding determined with 10^−5M of unlabeled PGE2,.
(§5) Plasmids encoding the human EP1, EP2, EP4, and FP receptors were prepared by cloning the respective coding sequences into the eukaryotic expression vector pCEP4 (Invitrogen). The pCEP4 vector contains an Epstein Barr virus (EBV) origin of replication, which permits episomal replication in primate cell lines expressing EBV nuclear antigen (EBNA-1). Similarly, competitive experiments were caried out using [3H]17-phenylPGF2α at 5 nM in the presence of test ligands at various concentrations. Also non-specific binding was, determined in the presence of excess unlabeled PGF2α (10^−5 M).
(§6) It also contains a hygromycin resistance gene that is used for eukaryotic selection. The cells employed for stable transfection were human embryonic kidney cells (HEK-293) that were transfected with and express the EBNA-1 protein. These HEK-293-EBNA cells (Invitrogen) were grown in medium containing Geneticin (G418) to maintain expression of the EBNA-1 protein. HEK-293 cells were grown in DMEM with 10% fetal bovine serum (FBS), 250 μg ml G418 (Life Technologies) and 200 μg ml^−1 gentamicin or penicillin/streptomycin.
(§7) For transfection, the cells were grown to 50-60% confluency on 10 cm plates. The plasmid pCEP4 incorporating cDNA inserts for the respective human prostanoid receptor (20 μg) was added to 500 μl of 250 mM CaCl2. HEPES buffered saline ×2 (2×HBS, 280 mM NaCl, 20 mM HEPES acid, 1.5 mM Na2 HPO4, pH 7.05-7.12) was then added dropwise to a total of […], with continuous vortexing at room temperature. After 30 min, 9 ml DMEM were added to the mixture. The DNA/DMEM/calcium phosphate mixture was then added to the cells, which had been previously rinsed with 10 ml PBS. The cells were then incubated for 5 hr at 37° C. in humidified 95% air/5% CO2. The calcium phosphate solution was then removed and the cells were treated with 10% glycerol in DMEM for 2 min. The glycerol solution was then replaced by DMEM with 10% FBS. The cells were incubated overnight and the medium was replaced by DMEM/10% FBS containing 250 μg ml^−1 G418 and penicillin/streptomycin. The following day hygromycin B was added to a final concentration of 200 μg ml^−1. […]

[2] = biological target: T2, human EP3 receptor (hEP3, D isoform) (Homo sapiens, UniProt P43115); test: Radioligand binding competition vs [3H]PGE2, human recombinant EP3 receptor; details: [3H]PGE2 competition, plasma membranes of transfected cells (COS-7 transient; HEK-293 also named), 60 min 25° C.
T2 construct: expressed in transfected cells; host or cells: COS-7 cells, transient transfection with pcDNA3 (lipofectin); plasma membrane fraction
T2 sequence (P43115 1-374 isoform P43115-4): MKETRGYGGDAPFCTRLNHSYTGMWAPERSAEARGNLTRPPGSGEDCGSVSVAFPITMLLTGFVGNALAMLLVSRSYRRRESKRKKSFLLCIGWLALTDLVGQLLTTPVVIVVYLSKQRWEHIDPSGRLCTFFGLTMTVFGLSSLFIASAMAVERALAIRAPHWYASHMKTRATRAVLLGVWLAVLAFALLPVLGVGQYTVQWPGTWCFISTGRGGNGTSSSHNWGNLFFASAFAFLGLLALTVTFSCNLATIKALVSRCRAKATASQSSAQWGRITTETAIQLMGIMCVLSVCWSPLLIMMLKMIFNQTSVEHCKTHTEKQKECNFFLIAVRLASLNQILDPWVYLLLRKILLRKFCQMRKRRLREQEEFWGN
Experimental: as §2, §4
Human Recombinant EP3 and TP Receptors: Transient Transfectants.
Plasmids encoding the human EP3 (D isoform) or TP receptor were prepared by cloning the respective coding sequences into a pcDNA3 vector (Invitrogen). COS-7 cells were transfected with pcDNA3 containing cDNA encoding the EP3 or TP receptor by employing the lipofectin method, according to the manufacturers instructions (Gibco). For radioligand binding studies, cells were harvested two days after transfection.
Radioligand binding studies on plasma membrane fractions prepared from cells were performed as follows. Cells washed with TME buffer were scraped from the bottom of the plates and homogenized for 30 sec using a Brinkman PT 10/35 polytron. TME buffer was added as necessary to achieve a 40 ml volume in the centrifuge tubes. TME is comprised of 50 mM TRIS base, 10 mM MgCl2, 1 mM EDTA; pH 7.4 is achieved by adding 1 N HCl. The cell homogenate was centrifuged at 19,000 rpm for 20-25 min at 4° C. using a Beckman Ti-60 or T ? -70 rotor. The pellet was then resuspended in TME buffer to provide a final protein concentration of 1 mg/ml, as determined by Bio-Rad assay. Radioligand binding assays were performed in a 100 μl or 200 μl volume.
The binding of [^3H] PGE2 (specific activity 165 Ci/mmol) was determined in duplicate and, in at least 3 separate experiments. Incubations were for 60 min at 25° C. and were terminated by the addition of 4 ml of ice-cold 50 mM TRIS-HCl followed by rapid filtration through Whatman GF/B filters and three additional 4 ml washes in a cell harvester (Brandel). Competition studies were performed using a final concentration of 2.5 or 5 nM [H] PGE2 and non-specific binding was determined with 10^−5 M unlabelled PGE2.

[3] = biological target: T3, human EP4 receptor (hEP4) (Homo sapiens, UniProt P35408); test: Radioligand binding competition vs [3H]PGE2, human recombinant EP4 receptor; details: [3H]PGE2 competition, plasma membranes of HEK-293 stable transfectants, 60 min 25° C.
T3 construct: expressed in transfected cells; plasma membrane fraction
Experimental: as §1, §2, §3, §4, §5, §6, §7

T1 sequence (P43116 whole entry): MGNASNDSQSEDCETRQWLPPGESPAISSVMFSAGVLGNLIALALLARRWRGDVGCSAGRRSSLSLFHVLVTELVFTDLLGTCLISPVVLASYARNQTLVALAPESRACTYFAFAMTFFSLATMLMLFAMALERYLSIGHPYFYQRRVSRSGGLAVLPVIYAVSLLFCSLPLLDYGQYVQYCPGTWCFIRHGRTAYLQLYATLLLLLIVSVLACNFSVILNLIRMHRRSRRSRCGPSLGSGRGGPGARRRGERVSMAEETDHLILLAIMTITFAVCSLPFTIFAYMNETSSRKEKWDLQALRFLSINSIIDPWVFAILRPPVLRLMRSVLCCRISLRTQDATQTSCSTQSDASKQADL
T3 sequence (P35408 whole entry): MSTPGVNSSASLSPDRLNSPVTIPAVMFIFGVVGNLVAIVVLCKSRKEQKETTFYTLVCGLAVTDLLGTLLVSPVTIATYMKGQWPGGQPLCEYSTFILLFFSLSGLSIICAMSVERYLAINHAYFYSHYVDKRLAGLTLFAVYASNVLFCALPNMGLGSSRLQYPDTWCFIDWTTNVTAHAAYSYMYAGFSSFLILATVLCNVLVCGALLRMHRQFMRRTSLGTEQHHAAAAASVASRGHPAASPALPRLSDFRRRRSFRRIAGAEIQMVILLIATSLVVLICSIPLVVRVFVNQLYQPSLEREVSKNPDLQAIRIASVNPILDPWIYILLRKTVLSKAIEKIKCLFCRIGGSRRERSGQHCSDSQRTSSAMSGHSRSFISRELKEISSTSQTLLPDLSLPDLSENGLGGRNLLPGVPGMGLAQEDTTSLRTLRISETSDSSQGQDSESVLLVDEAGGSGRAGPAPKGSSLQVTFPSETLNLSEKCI

Row | Compound | IC50 [1] | IC50 [2] | IC50 [3]
1 | O=C(O)CSCCCS[C@H]1C(=O)C[C@@H](O)[C@@H]1/C=C/C(O)CCc1ccc2ccccc2c1 (single isomer, unassigned) [Example 10H] | > 10000 nM | > 10000 nM | 450 nM
2 | O=C(O)CSCCCS[C@H]1C(=O)C[C@@H](O)[C@@H]1/C=C/C(O)CCc1ccc2ccccc2c1 (single isomer, unassigned) [Example 10L] | > 10000 nM | 8300 nM | 19.5 nM
3 | COC(=O)CSCCCS[C@H]1C(=O)C[C@@H](O)[C@@H]1/C=C/C(O)Cc1ccc2ccccc2c1 (single isomer, unassigned) [Example 21H] | – | > 10000 nM | 100 nM
4 | COC(=O)CSCCCS[C@H]1C(=O)C[C@@H](O)[C@@H]1/C=C/C(O)Cc1ccc2ccccc2c1 (single isomer, unassigned) [Example 21L] | – | > 10000 nM | 13 nM
5 | O=C(O)CSCCCS[C@H]1C(=O)C[C@@H](O)[C@@H]1/C=C/C(O)Cc1ccc2ccccc2c1 (single isomer, unassigned) [Example 22H] | – | > 10000 nM | 32 nM
6 | O=C(O)CSCCCS[C@H]1C(=O)C[C@@H](O)[C@@H]1/C=C/C(O)Cc1ccc2ccccc2c1 (single isomer, unassigned) [Example 22L] | > 10000 nM | > 10000 nM | 6.2 nM
7 | COC(=O)CSCCCS[C@H]1C(=O)C[C@@H](O)[C@@H]1/C=C/C(O)Cc1csc2ccccc12 (single isomer, unassigned) [Example 24L] | 9300 nM | > 10000 nM | 30 nM
8 | O=C(O)CSCCCS[C@H]1C(=O)C[C@@H](O)[C@@H]1/C=C/C(O)Cc1csc2ccccc12 (single isomer, unassigned) [Example 25H] | > 10000 nM | – | 69 nM
9 | O=C(O)CSCCCS[C@H]1C(=O)C[C@@H](O)[C@@H]1/C=C/C(O)Cc1csc2ccccc12 (single isomer, unassigned) [Example 25L] | 2200 nM | > 10000 nM | 5 nM
10 | COC(=O)CSCCCS[C@H]1C(=O)C[C@@H](O)[C@@H]1/C=C/C(O)CCc1ccc2ccccc2c1 (stereo partly drawn) [Example 9L, {3-[(1R,2S,3R)-3-Hydroxy-2-((S)-(E)-3-(hydroxy)-5-(naphthyl)pent-1-enyl)-5-oxocyclopentylsulfanyl]propylsulfanyl}acetic acid methyl ester] | – | > 10000 nM | –
11 | COC(=O)CSCCCS[C@H]1C(=O)C[C@@H](O)[C@@H]1/C=C/[C@@H](O)CCc1cc2ccccc2s1 [Example 13L, {3-[(1R,2S,3R)-3-Hydroxy-2-((S)-(E)-3-hydroxy-5-(benzothienyl)pent-1-enyl)-5-oxocyclopentylsulfanyl]propylsulfanyl}acetic acid methyl ester] | > 10000 nM | 7200 nM | 93 nM
12 | CC(O)(/C=C/[C@H]1[C@H](O)CC(=O)[C@@H]1SCCCSCC(=O)O)CCc1ccc2ccccc2c1 (stereo partly drawn) [Example 28H, {3-[(1R,2S,3R)-3-Hydroxy-2-((S)-(E)-3-(hydroxy)-3-(methyl)-5-(naphthyl)pent-1-enyl)-5-oxocyclopentylsulfanyl]propylsulfanyl}acetic acid] | – | > 10000 nM | 1700 nM
13 | CC(O)(/C=C/[C@H]1[C@H](O)CC(=O)[C@@H]1SCCCSCC(=O)O)CCc1ccc2ccccc2c1 (stereo partly drawn) [Example 28L, {3-[(1R,2S,3R)-3-Hydroxy-2-((S)-(E)-3-(hydroxy)-3-(methyl)-5-(naphthyl)pent-1-enyl)-5-oxocyclopentylsulfanyl]propylsulfanyl}acetic acid] | – | > 10000 nM | 1500 nM
14 | COC(=O)CSCCCS[C@H]1C(=O)C[C@@H](O)[C@@H]1/C=C/C(C)(O)Cc1ccc2ccccc2c1 (stereo partly drawn) [Example 30H, {3-[(1R,2S,3R)-3-Hydroxy-2-((E)-3-hydroxy-3-methyl-4-naphthalen-2-yl-but-1-enyl)-5-oxocyclopentylsulfanyl]propylsulfanyl}acetic acid methyl ester] | – | > 10000 nM | 3100 nM
15 | CC(O)(/C=C/[C@H]1[C@H](O)CC(=O)[C@@H]1SCCCSCC(=O)O)Cc1ccc2ccccc2c1 (stereo partly drawn) [Example 31H, {3-[(1R,2S,3R)-3-Hydroxy-2-((E)-3-hydroxy-3-methyl-4-naphthalen-2-yl-but-1-enyl)-5-oxocyclopentylsulfanyl]propylsulfanyl}acetic acid] | – | 8100 nM | 300 nM
16 | CC(O)(/C=C/[C@H]1[C@H](O)CC(=O)[C@@H]1SCCCSCC(=O)O)Cc1ccc2ccccc2c1 (stereo partly drawn) [Example 31L, {3-[(1R,2S,3R)-3-Hydroxy-2-((E)-3-hydroxy-3-methyl-4-naphthalen-2-yl-but-1-enyl)-5-oxocyclopentylsulfanyl]propylsulfanyl}acetic acid] | – | 9300 nM | 900 nM
17 | C[C@@](O)(/C=C/[C@H]1[C@H](O)CC(=O)[C@@H]1SCCCSCC(=O)O)CCc1cc2ccccc2s1 [Example 34L, {3-[(1R,2S,3R)-3-Hydroxy-2-((S)-(E)-3-(hydroxy)-3-(methyl)-5-(benzothienyl)pent-1-enyl)-5-oxocyclopentylsulfanyl]propylsulfanyl}acetic acid] | – | > 10000 nM | 68 nM
